Assay results published in patent US20170266222A1, “MODULATION OF CHRFAM7A FOR ANTI-INFLAMMATORY THERAPIES” (THE REGENTS OF THE UNIVERSITY OF CALIFORNIA, priority 2016, published 2017).
Entries after “also recorded” stand apart in the source; their conditions may differ.

Key:
CHRFAM7A gene expression = experiment: qPCR of CHRFAM7A gene expression in gut epithelial cells treated with LPS; assay type: cell-based, human
Description: (§1) All epithelial cancer cell lines were originally purchased from American Type Culture Collection and propagated as instructed. Normal human small intestine epithelial cells (FHs-Int-74) were also obtained from the ATCC (CCL-241). Cells were seeded at 2×10^6 in 6-well tissue culture plates the day before the experiment. As indicated, cells were either harvested directly for total RNA preparation, processed for transient transfection, or treated with LPS (CAT# L4391, Sigma) at 100 ng/ml for 3 hours. At the end of the incubation with LPS, cells were harvested and used for analyses of gene expression.
(§2) Total RNA was prepared using RNeasy kit (Qiagen) and was quantitated using Nanodrop Spectrophotometer. One μg total RNA was reverse transcribed using iScript cDNA synthesis kit (BioRad) in a 20 μl reaction. Of the 20 μl cDNA, one μl was used for RT-PCR or real-time qPCR.
(§3) RT-PCR was performed in a 50 μl reaction containing 45 μl PCR blue mix (Invitrogen), 1 μl of each primer (10 μM), 1 μl cDNA, and 2 μl water. The cycling conditions were: 94° C. for 4 minutes followed by 35 cycles of 94° C. for 30 seconds, 60° C. for 30 seconds, and 72° C. for 60 seconds and a final extension at 72° C. for 5 minutes. Ten μl of each PCR products were resolved on a 2% agarose gel and images were acquired using Alpha Innotech imaging system. Real-time qPCR was performed in a 25 μl reaction containing 12.5 μl 2×CYBR Green PCR Master Mix (BioRad), 0.5 μl of each primer (10 μM), 1 μl cDNA, and 10.5 μl water. PCR cycling conditions were: 95° C. for 10 minutes followed by 45 cycles of 94° C. for 25 seconds, 60° C. for 25 seconds, and 72° C. for 40 seconds. Primer efficiency for CHRFAM7A and CHRNA7 were 100% and 94% respectively. Expression of CHRNA7 and CHRFAM7A was normalized to that of GAPDH using ΔΔCt method.
Primers for CHRFAM7A were designed to hybridize with the variant 1 transcript by selecting sequences that bridge CHRFAM7A and CHRNA7 and therefore unique to CHRFAM7A and not available in FAM7A or CHRNA7A alone: Sense: 5′-ATAGCTGCAAACTGCGATA-3′ (SEQ ID NO:11), Anti-sense: 5′-[…]-3′(SEQ ID NO:12).

CHRNA7 gene expression = experiment: qPCR of CHRNA7 gene expression in gut epithelial cells treated with LPS; assay type: cell-based, human; settings: 3 hours
Description: as §1, §2, §3
Primers for CHRNA7 were designed to hybridize with both variant 1 and 2 transcripts of CHRNA7 by selecting sequences present in CHRNA7 but absent from CHRFAM7A for amplification: Sense, 5′-acATGcgctgctcgccggga-3′ (SEQ ID NO:13), Anti-sense, 5′-[…]-3′ (SEQ ID NO:14).

CHRFAM7A promoter [1] = experiment: CHRFAM7A promoter luciferase reporter in FHs cells; assay type: cell-based, human; settings: LPS 100 ng/ml
Description: (§4) The putative CHRFAM7A promoter region spanning from −2363 to +22 relative to the open reading frame ATG start codon was amplified by PCR of genomic DNA isolated from HEK293 cells. The longest fragment was cloned into pGL4 promoter-less luciferase reporter plasmid (Promega) according to the manufacturers specifications and the resulting plasmid, pGL4-CHRFAM7A (2400) was confirmed by DNA sequencing and thereafter referred to F2400 to reflect the size of the fragment. […]
(§5) The fragments generated were cloned into the pGL4 vector to create plasmids f1800, f1000, and f500, which were each sequenced to confirm their identity. These plasmids were then transiently transfected into FHs cells as described below, and luciferase activity was analyzed 30 hours after transfection following the manufacturer's instructions (Promega). […]
Transfections of FHs cells for luciferase activity: The normal human small intestine FHs cells were cultured in 10% DMEM/F12 supplemented with 1× Glutamax, 1× Penicillin/Streptomyxin, and 30 ng/ml EGF and seeded at 1×10^5 per well in a 12-well plate the day before transfection. […] The lysate was spun down and 10 μl of the supernatant was used for luciferase assay on POLARstar Omega plate reader (BMG LABTECH).

[2] = tested on: CHRFAM7A/CHRNA7 gene expression; experiment: qRT-PCR ratio of CHRFAM7A to CHRNA7 in leukocyte cell lines treated with LPS; assay type: cell-based, human; settings: 100 ng/ml LPS, 3 hours
Description: All cell lines were originally purchased from ATCC and/or acquired through the UCSD Department of Surgery, Division of Trauma, Burns and Acute Care Surgery Cell Repository. Thawed cells were washed in RPMI culture media containing 10% FCS, the pellet reconstituted in culture media and cells plated into six-well tissue culture plates. All cells were washed 48 hrs later and allowed to grow to 90% confluence and propagated with trypsin digestion as needed. For transduction studies, cells were seeded at 2×10^6 in 6-well tissue culture plates the day before the experiment. As indicated in each experiment, cells were harvested directly from the culture dishes for total RNA preparation, processed for stable or transient transfection, or treated with 100 ng/ml LPS (CAT# L4391, Sigma) for 3 hours. At the end of incubations, cells were harvested, total RNA isolated and the cDNA generated (see below) used for analyses of gene expression.
Total RNA was prepared from cell lysates using the RNeasy kit (Qiagen, San Diego Calif.) and was quantified using a Nanodrop Spectrophotometer. […]
RT-PCR and Quantitative RT-PCR for CHRFAM7A and CHRNA7: RT-PCR was performed in a 50 μl reaction containing 45 μl PCR blue mix (Invitrogen), 1 μl of each primer (10 μM), 1 μl cDNA, and 2 μl water. […]

CHRNA7 and CHRFAM7A = settings: undifferentiated human THP1 cells and human macrophages; cited from earlier work
CHRFAM7A promoter [3] = experiment: CHRFAM7A promoter luciferase reporter in THP1 cells; assay type: cell-based, human; settings: THP1 cells pre-treated with 100 ng/ml LPS
Description: as §4, with “Analyses of the CHRFAM7A promoter: The putative” for “The putative”, “plasmid, pGL4-CHRFAM7A (˜2400) was confirmed” for “plasmid, pGL4-CHRFAM7A (2400) was confirmed”, “referred to f2400 to reflect” for “referred to F2400 to reflect”
as §5, with “THP1” for “FHs”
THP1 cells, cultured in RPMI1640 supplemented with 1× Glutamax and 1× Penicillin/Streptomycin, were seeded at 5×10^5 per well in a 24-well plate two hours before transfection. […] The lysate was spun down and 10 μl of the supernatant was used for luciferase assay on POLARstar Omega plate reader (BMG LABTECH). Luciferase activity normalized to protein concentration was expressed as fold changes over that of pGL4 transfected cells.

Substance: lipopolysaccharide [LPS]
- CHRFAM7A gene expression by q-PCR (CHRFAM7A gene expression; FHs cells, 100 ng/ml LPS, 3 hr): increases
- relative expression of CHRFAM7A over CHRNA7 (CHRFAM7A gene expression; HCT116T, KM20L and T84 cells, LPS): unchanged
- change of CHRFAM7A gene expression (CHRFAM7A gene expression; KM12 and T84 cells, 100 ng/ml LPS): decreased
- increase of CHRFAM7A gene expression (CHRFAM7A gene expression; epithelial cells, 100 ng/ml LPS, 3 hour treatment): ~1000 fold
- increase of relative expression of CHRFAM7A over CHRNA7 (CHRFAM7A gene expression; gut epithelial cells, depending on the cell line, LPS): 2-200 fold
- increase in CHRNA7 gene expression (CHRNA7 gene expression; CaCo2, KM12, KM20, SW, Colo205 cells, 100 ng LPS): less than two-fold
- decrease in CHRNA7 gene expression (CHRNA7 gene expression; FHs and T84 cells, 100 ng LPS): 30%
- effect on CHRNA7 gene expression (CHRNA7 gene expression; epithelial cells, 100 ng/ml LPS): little to no effect; also recorded: little effect
- luciferase activity profile of CHRFAM7A UTR fragments (CHRFAM7A promoter [1]): very similar profile
- ratio of CHRFAM7A to CHRNA7 gene expression [2]: unaffected; also recorded: both genes respond equally
- effect on CHRNA7 and CHRFAM7A (CHRNA7 and CHRFAM7A): inhibits
- luciferase signal of CHRFAM7A 5'UTR fragments (CHRFAM7A promoter [3]): decreased; also recorded: inhibited
